{
  "source": "patent EP0937460A2",
  "about": "“Use of an antidiarrheal for the manufacture of a medicament for the treatment of inflammatory conditions” (Adolor Corporation, priority 1994, dated 1995)",
  "key": {"hairless mice [1]": {"test_system": "hairless mice", "assay": "DNCB-induced contact hypersensitivity in hairless mice, ear swelling", "type": "in vivo, mouse", "method": "Similar to what has been commonly reported by other investigators, the specific protocol used in these studies involved the application of DNCB (in an acetone:olive oil 4:1 vehicle) to the skin on the posterior portion of the back of hairless mice. Five days later, DNCB was applied to the dorsal surface of the ears. At the indicated time point, the mice were euthanized, ear thickness was measured, and the samples were processed for either RNA extraction, protein analysis, or histology.\nExperiments were carried out in an effort to inhibit the DNCB-induced immune reaction with various drugs. […] The left ear was similarly treated with vehicle.\nThe ability of amiloride to suppress DNCB-induced ear swelling was also examined. In these experiments, mice were sensitized with DNCB, and, five days later, amiloride (2% w/v in 70% propylene glycol: 30% ethanol) was applied to the right ear and vehicle to the left ear 30 minutes and 8 hours after DNCB challenge."}, "TNF production [2]": {"test_system": "TNF production", "assay": "Inhibition of LPS-stimulated TNF production in the mouse macrophage line RAW 264.7 (ELISA)", "type": "cell-based", "settings": "for activity at 10 µM: RAW264.7, 6 h, read-out: TNF LEVEL % Control (LPS alone), Ave. ± S.D.; for effectiveness against LPS-stimulated TNF production (in words): drug 10 µM", "method": "Cells were passaged at confluence by scraping and routinely plated at a density of 0.25 x 10^6 and 0.5 x 10^6 cells per T-75 and T-150, respectively.\nTypically, RAW cells were plated at 0.25 x 10^6 cells per well of a 24-well plate, in 0.5 mL media per well on the day prior to experimentation. […] 1%. Drugs were co-administered with the stimulant, LPS. After a 6-hr incubation period with LPS ± drug (n = 3-4), the media from the experimental wells was harvested, the cells were removed by microcentrifugation, and the media assayed for TNF by ELISA. Drugs were screened at 10 µM for their ability to alter TNF production by cells stimulated with 1 µg/mL or 10 ng/mL LPS. Dexamethasone, an anti-inflammatory corticosteroid, served as the reference for inhibition of the LPS response."}, "THP-1 cells": {"test_system": "THP-1 cells", "assay": "MTT assay of THP-1 cell viability", "method": "(§1) THP-1 cells were plated into 24-well plates at a density of 1.0 x 10^6 cells per mL in 0.5 mL medium per well. […] For measurement of IL-1α and IL-1β production, THP-1 cells were incubated with 500 ng/mL or 50 ng/mL LPS and incubated for 16 hours. Levels of secreted cytokine were measured in cell supernatants as for TNF. Cell-associated species were measured in cell lysates which were prepared by repetitive freeze-thawing of cells. For in vitro screening, drugs at 10 µM concentration were co-administered with LPS. […] Drug effects on cell viability were assessed by the MTT assay. […] Water-soluble drugs were dissolved in aqueous solutions such as RPMI or deionized H20. The final concentration of DMSO in the incubation medium was at or below 0.01% and that of ethanol was at or below 0. 1%. The effect on cell viability was evaluated by the MTT assay."}, "TNF mRNA": {"test_system": "TNF mRNA", "assay": "TPA-induced TNF mRNA expression in hairless mouse skin (RT-PCR)", "type": "in vivo", "settings": "verapamil 4% w/v in ethanol, topical; 3 hour time point; p < 0.01"}, "humans": {"test_system": "humans", "assay": "Skin inflammation models in humans (2% sodium laurel sulfate or 5% nickel sulfate, 24 hour patch test)", "type": "in vivo", "method": "Human skin inflammation was elicited by either 2% sodium laurel sulfate in normal volunteers (irritant contact dermatitis) or by 5% nickel sulfate in nickel-sensitive individuals (allergic contact dermatitis) using a 24 hour patch test. Following the elicitation, either topical verapamil formulation or a placebo formulation was applied three times daily for two consecutive days on two respective sites. At the end of the two-day topical treatment, the degree of skin inflammation (i.e., erythema, edema and blister formation was assessed by a trained dermatologist. Skin biopsies were taken from the placebo and the active sites and analyzed for skin thickness and TNF levels using immunohistochemical techniques."}, "KC mRNA": {"test_system": "KC mRNA", "assay": "TPA-induced KC mRNA expression in hairless mouse skin (RT-PCR)", "settings": "verapamil 4% w/v topical; 3 hour; one of three mice; p = 0.04"}, "mice": {"test_system": "mice", "assay": "Skin inflammation induced by 2% sodium lauryl sulfate (SLS) in mice", "type": "in vivo", "settings": "2% SLS with near saturated verapamil", "method": "Following the 24 hour exposure, the Hilltop chambers were removed and, after 18 hours, skin thickness readings were taken. […] Table"}, "TNF production [3]": {"test_system": "TNF production", "assay": "Inhibition of LPS-stimulated TNF production in the human monocytic cell line THP-1 (ELISA)", "type": "cell-based", "settings": "for activity at 10 µM / inhibition at 10 µM: Homo sapiens; for activity at 10 µM: read-out: TNF LEVEL % Control (LPS alone), Ave. ± S.D.", "method": "Cultures were maintained by the addition of fresh growth medium to a T-75 or T-150 flask of cells in suspension, or by pelleting the cells and re-suspending them in the appropriate volume of fresh medium. Maximum cell density was 1.0 x 10^6 cells per mL and cultures were seeded at a minimum density of 0.2 x 10^6 cells per ml.\nas §1"}, "IL-1β": {"test_system": "IL-1β", "assay": "LPS-stimulated IL-1β production by THP-1 cells", "type": "cell-based, human", "method": "as §1"}, "IL-1α": {"test_system": "IL-1α", "assay": "LPS-stimulated IL-1α production by THP-1 cells", "type": "cell-based, human", "method": "as §1"}, "TNF production [4]": {"test_system": "TNF production", "assay": "Inhibition of TPA-stimulated TNF production in human epidermal keratinocytes (ELISA)", "type": "cell-based"}, "hairless mice [5]": {"test_system": "hairless mice", "method": "In addition to assessing the cytokine mRNA levels, the time course of the TPA-induced increase in skin thickness was also evaluated. This measurement was made with a micrometer using skin excised from euthanized mice. […] Further increases were typically seen 8 hours with this response being maintained through the 24 hour time point.\nThree of the mice were euthanized at the 3 hour time point, and the treated sites were analyzed for TNF mRNA by RT-PCR. The fourth mouse was euthanized at a 24 hour time point, and the thickness of the treated areas of skin was measured using a micrometer.\nAt the 8 hours time point, the mice were euthanized, the treated areas of skin were excised, and the thickness of the skin was measured using a micrometer."}, "[6]": {"settings": "Mus musculus, RAW cells, DRUG [10 µM], LPS at 10 ng/mL"}},
  "note": "Structures can show the parent of a compound that is named as a salt. Where two headings read alike, the source gives them in different places.",
  "data": [
    {"smiles": "COc1ccc(CCN(C)CCCC(C#N)(c2ccc(OC)c(OC)c2)C(C)C)cc1OC", "note": "(racemic) [(±)-Verapamil, verapamil]", "values": [
      {"measurement": "swelling of the ear after DNCB challenge", "setting": "hairless mice [1]; verapamil 4% w/v topical, initial experiment", "value": "some suppression"},
      {"measurement": "ear swelling after DNCB challenge", "setting": "hairless mice [1]; verapamil 5% w/v topical, n = 6, repeated experiment", "value": "significantly reduced"},
      {"measurement": "activity at 10 µM", "setting": "TNF production [2]; [6]", "value": "36 ± 1", "unit": "%"},
      {"measurement": "THP-1 cell viability (MTT assay)", "setting": "THP-1 cells; highest dose tested", "value": "did not impact"},
      {"measurement": "skin TNF mRNA levels compared to TPA alone", "setting": "TNF mRNA", "value": "significant reduction"},
      {"measurement": "patients in whom dermatitis resolved faster on treated sites", "setting": "humans; challenged with 2% sodium laurel sulfate", "value": "2 out of 3"},
      {"measurement": "patients with skin thickness less on treated sites than placebo sites", "setting": "humans; topical verapamil three times daily for two days", "value": "4 out of 6"},
      {"measurement": "patients with less TNF in the skin biopsies than placebo sites", "setting": "humans; topical verapamil three times daily for two days, immunohistochemistry", "value": "4 out of 6"},
      {"measurement": "KC mRNA levels", "setting": "KC mRNA", "value": "significant suppression"},
      {"measurement": "Skin Thickness (mm, n = 4)", "setting": "mice; 24 hours occlusion, read 18 hours after removal (2% SLS alone 1.23, untreated 0.59)", "value": "0.65 ± 0.09", "unit": "mm"},
      {"measurement": "Visual Observation", "setting": "mice; 24 hours under occlusion", "value": "Normal"},
      {"measurement": "activity at 10 µM", "setting": "TNF production [3]; THP-1, 6 h", "value": "46 ± 9", "unit": "%"},
      {"measurement": "inhibition at 10 µM", "setting": "TNF production [3]; THP-1, read-out: inhibition of TNF production", "value": 54, "unit": "%"},
      {"measurement": "inhibition at 0.05 µg/mL", "setting": "IL-1β; Homo sapiens, THP-1, 16 h, read-out: inhibition of IL-1β levels", "value": "~33", "unit": "%"},
      {"measurement": "inhibition at 0.05 µg/mL", "setting": "IL-1α; Homo sapiens, THP-1, 16 h, read-out: inhibition of IL-1α levels", "value": "40 to 50", "unit": "%"}
    ]},
    {"smiles": "N=C(N)NC(=O)c1nc(Cl)c(N)nc1N", "note": "[Amiloride, amiloride]", "values": [
      {"measurement": "ear thickness, % of pre-challenge values", "setting": "hairless mice [1]; DNCB + amiloride 2% w/v topical (DNCB alone 135%), p < 0.002", "value": 113, "unit": "%"},
      {"measurement": "activity at 10 µM", "setting": "TNF production [2]; [6]", "value": "75 ± 25", "unit": "%"},
      {"measurement": "effectiveness against LPS-stimulated TNF production (in words)", "setting": "TNF production [2]; RAW cells", "value": "moderately effective"},
      {"measurement": "THP-1 cell viability (MTT assay)", "setting": "THP-1 cells", "value": "did not impact"},
      {"measurement": "activity at 10 µM", "setting": "TNF production [3]; 6 h, THP-1 cells, DRUG [10 µM], LPS 1 µg/mL", "value": "56 ± 15", "unit": "%"},
      {"measurement": "inhibition at 10 µM", "setting": "TNF production [3]; LPS-stimulated THP-1 cells, drug 10 µM, read-out: inhibition of TNF production", "value": 40, "unit": "%"},
      {"measurement": "effectiveness against LPS-stimulated TNF production (in words)", "setting": "TNF production [3]; LPS-stimulated THP-1 cells, 10 µM", "value": "comparatively more effective"},
      {"measurement": "IC50 value (50% of the maximal inhibition, as defined by effects at 10 µM)", "setting": "TNF production [3]; LPS-stimulated TNF production, THP-1 cells", "value": "within the same range"},
      {"measurement": "level of cell-associated and secreted IL-1β (in words)", "setting": "IL-1β; THP-1 cells, 10 µM", "value": "reduce the level"},
      {"measurement": "activity at 10 µM", "setting": "TNF production [4]; Homo sapiens, epidermal keratinocytes, HEK cells, DRUG [10 µM], stimulation by TPA 10 ng/mL, read-out: TNF LEVEL % Control (LPS alone), Ave. ± S.D.", "value": "≥ 100", "unit": "%"},
      {"measurement": "level of cell-associated and secreted IL-1α (in words)", "setting": "IL-1α; THP-1 cells, 10 µM", "value": "reduce the level"}
    ]},
    {"smiles": "CN(C)C(=O)C(CCN1CCC(O)(c2ccc(Cl)cc2)CC1)(c1ccccc1)c1ccccc1", "note": "[Loperamide, 4-(p-chlorophenyl)-4-hydroxy-N,N-dimethyl-α, α-diphenyl-1-piperidine butyramide HCL]", "values": [
      {"measurement": "activity at 10 µM", "setting": "TNF production [2]; Mus musculus", "value": "62 ± 32", "unit": "%"},
      {"measurement": "inhibition at 10 µM", "setting": "TNF production [2]; Mus musculus, RAW264.7, read-out: inhibition of LPS-stimulated TNF secretion", "value": 62, "unit": "%"},
      {"measurement": "effectiveness against LPS-stimulated TNF production (in words)", "setting": "TNF production [2]; RAW cells", "value": "lowering of TNF levels"},
      {"measurement": "THP-1 cell viability (MTT assay)", "setting": "THP-1 cells; highest dose tested", "value": "did not impact"},
      {"measurement": "activity at 10 µM", "setting": "TNF production [3]; THP-1, 6 h", "value": "42 ± 22", "unit": "%"},
      {"measurement": "inhibition at 10 µM", "setting": "TNF production [3]; THP-1, read-out: inhibition of TNF production, LPS-stimulated THP-1 cells, drug 10 µM", "value": "~42", "unit": "%"},
      {"measurement": "skin thickness", "setting": "hairless mice [5]; TPA + loperamide 7.5% solution topical, 8 hour, first experiment (vehicle 0.36 mm, TPA 0.56 mm)", "value": 0.39, "unit": "mm"},
      {"measurement": "skin thickness", "setting": "hairless mice [5]; TPA + loperamide topical, second experiment (vehicle 0.39 mm, TPA 0.89 mm), p<0.01 vs. TPA alone", "value": 0.57, "unit": "mm"},
      {"measurement": "thickness of skin treated with drug alone compared to vehicle-treated skin", "setting": "hairless mice [5]; loperamide 7.5% alone, no TPA", "value": "unchanged"},
      {"measurement": "inhibition of the TPA-induced swelling response", "setting": "hairless mice [5]; loperamide topical, second experiment", "value": 64, "unit": "%"},
      {"measurement": "TPA-induced increase in skin thickness / swelling response (in words)", "setting": "hairless mice [5]; topical application, loperamide: 8 hour time point, first experiment", "value": "completely inhibit"},
      {"measurement": "effect on TPA-stimulated levels of TNF (in words)", "setting": "TNF production [4]; human keratinocytes, TPA 10 ng/mL, drug 10 µM", "value": "very effective"}
    ]}
  ]
}
